Test results: patent US20070105960A1, “Treatment of learning disabilities and motor skills disorder with norepinephrine reuptake inhibitors” (ELI LILLY AND COMPANY, priority 2003, published 2007)
“Also recorded” adds a separate entry of the source.

How the values were obtained:
rats [1] = assay: 8-arm radial maze delayed non-match to sample task; format: in vivo, rat; details: FIG. 1
Procedure: (§1) The effects of atomoxetine on learning and memory in rats are evaluated in two different animal models. In an 8-arm radial maze delayed non-match to sample (DNMTS) task, well-trained rats recall where they received rewards during an information phase in order to obtain the remaining rewards during a retention phase conducted after a delay of several hours. Performance in this task is influenced by the administration of putative amnesics and cognitive enhancers (Staubli U, Rogers G, Lynch G (1994) Facilitation of glutamate receptors enhances memory. Proc Natl Acad Sci USA 91: 777-781; Pilcher J J, Sessions G R, McBride S A (1997) Scopolamine impairs spatial working memory in the radial maze: an analysis by error type and arm choice. Pharmacol Biochem Behav 58: 449-459; Pussinen R, Sirvio J (1999) Effects of D-cycloserine, a positive modulator of N-methyl-D-aspartate receptors, and ST 587, a putative alpha-1 adrenergic agonist, individually and in combination, on the non-delayed and delayed foraging behaviour of rats assessed in the radial arm maze. J Psychopharinacol 13:171-179; Wolff M. C., Leander, J. David (2003) A comparison of the effects of antipsychotics on a delayed radial maze task in the rat. Psychopharmacolology 168:410-416). […]

rats [2] = assay: Object recognition test; format: in vivo, rat; details: three hour delay, 60 minutes pre-treatment, FIG. 2
Procedure: as §1, with “maze.” for “maze. J Psychopharinacol 13:171-179; Wolff M. C., Leander, J. David (2003) A comparison of the effects of antipsychotics on a delayed radial maze task in the rat. Psychopharmacolology 168:410-416).”
During the testing phase of the experiment, rats are administered appropriate vehicle or drug (N=9/dose) and placed back in their home cage for the pre-treatment period (60 minutes). […] The time spent sniffing (nose <2.5 cm from the object), gnawing, or touching the objects with the front paws is recorded. […]

CNCC[C@@H](Oc1ccccc1C)c1ccccc1 [atomoxetine, (R)-(−)-N-methyl-3-(2-methyl-phenoxy)-3-phenylpropylamine]
errors in the 8 arm radial maze retention paradigm (rats [1]): reduction of errors | learning and memory performance in the 8 arm radial maze (rats [1]; oral, 7 hour delay): improves learning and memory performance | object recognition (rats [2]): improves object recognition; also recorded: improvement of object recognition
